Legend:
HGF/MET system = assay: Phospho-MET ELISA; assay type: cell-based; design: key: − indicates that the compound failed to significantly augment MET phosphorylation; + indicates maximum potency at or above 100 nM; ++ indicates maximum potency at or above 10 nM; +++ indicates maximum potency at or above 1 nM; ++++ indicates maximum potency at or above 0.1 nM; conditions: HEK293 cells; with 1 ng/mL recombinant HGF; 15 minutes; augmentation of MET phosphorylation (pMET ELISA)
Protocol: Compounds were screened for potency towards the HGF/MET system using phospho-MET (pMET) ELISA kits (Cell Signaling). pMET levels were detected in samples having low (1 ng/mL) and high (10 ng/mL) concentrations of HGF.
HEK293 cells were prepared by passage into 6-well multi-plates and grown at 37° C. at 5% CO2 in DMEM+10% FBS until approximately 90% confluent. Cells were then starved for at least 8 hours in serum-free growth media.
Exemplary compounds were prepared in DMEM+0.1% FBS, diluted and added to treatment media with 1 ng/mL recombinant HGF protein (R&D Systems). Cells were incubated in triplicate at 37° C. and 5% CO2 for 15 minutes. Samples were then treated with 180 μL ice-cold RIPA (radioimmunoprecipitation assay) buffer and cells were lysed on ice for 15 minutes. Lysates were cleared by centrifugation at 16,000-g for 15 minutes and the supernatant was retained. Samples were normalized using a BCA assay of lysates to determine protein concentrations across the samples.
Between 50 and 100 μg total protein lysate was loaded into ELISA wells in pMET Sandwich ELISA kit (Cell Signaling Catalog #7227C), ensuring equal protein load in each well. The ELISA was processed according to manufacturer's instructions. After color developed, absorbance was read on an optical plate reader at 450 nm.
Potency measurements were determined using peak efficacy by scaling test compound dose treatments along a scale of 1-10 between 1 ng/mL and 10 ng/mL HGF doses according to the following formula: […]
where y is the normalized data-point, x is the raw data point, A is the mean HGF at 1 ng/mL, and B is the mean HGF at 10 ng/mL.

MDCK cells = assay: Cell scattering behavior assay; assay type: cell-based; design: key: − indicates that the compound failed to significantly promote cell scattering behavior; + indicates maximum potency at or above 100 nM; ++ indicates maximum potency at or above 10 nM; +++ indicates maximum potency at or above 1 nM; ++++ indicates maximum potency at or above 0.1 nM; conditions: with 5 ng/mL HGF, 24 hours, normalized particle count compared to HGF treatment alone
Protocol: MDCK cells were grown under normal conditions and observed to spontaneously form tight colonies as they proliferate. MDCK cells respond to HGF treatment by moving away from each other (scattering), which is quantified to assess the amount of HGF/MET activation in the cell population. In this experiment, MDCK cells were plated in a 96-well format, treated with HGF and exemplary compounds, fluorescently stained, imaged in large fields, and scattering behavior was quantified. Quantification was determined by analyzing the number of continuous groups of cells compared to the total stained area imaged (normalized particle counts).
MDCK cells were plated at low density in black-walled imaging plates and allowed to attach overnight at 37° C. and 5% CO2 in DMEM+10% FBS. Cells were then starved to 2 hours in DMEM without FBS (“starve media”). Samples containing exemplary compounds were prepared in DMEM without FBS and included 5 ng/mL HGF protein (“treatment media”). A control curve was also prepared for each plate using HGF concentrations of 0, 5, 10, and 20 ng/mL. Starve media was replaced with treatment media and cells were incubated for 24 hours at 37° C. and 5% CO2.
After incubation, cells were fixed by replacing treatment media with cold ethanol and incubating for 20 minutes at 4° C. Cells were then rehydrated by washing with PBS and then with stain solution (fluorescent wheat germ agglutinin; WGA488 at 20 μg/mL in PBS). Cells were incubated with stain solution 30 minutes at room temperature after which stain solution was replaced with fresh PBS.
Fields of cells were imaged using an iCyte high content imager in the green wavelength. Images were converted to binary and analyzed for particle size and particle count. For the purpose of analysis, an individual cell touching no other cells or separated colonies of cells were identified as particles, and particle counts were normalized by the total signal area to account for differences in cell number. […] Compound potency was assessed by statistical increase in normalized particle count compared to HGF treatment alone.

[1] = Turbidimetric solubility assay; assay type: physicochemical; conditions: PBS (diluted from 10 mM DMSO stock), aqueous buffer, kinetic from dmso stock, 37° C. for 2 hours, dilution series 3 to 300 μM
Protocol: Aqueous solubility is a critical drug property that helps to predict bioavailability. Generally, compounds with aqueous solubility <100 μg/ml are poor drugs.
To assess a compound's solubility by turbidity, test compounds were first dissolved in organic solvent (DMSO) at a concentration of 10 mM. This compound solution was then diluted in aqueous solvent (PBS) in a dilution series from 3 to 300 μM in a 96-well assay plate. Solutions were incubated at 37° C. for 2 hours.
In wells with test compounds over their solubility limit, the compound will precipitate, effectively blocking the passage of light and thus increasing the absorbance signal of UV light at a wavelength of 620 nm. Compounds were considered insoluble at a tested concentration if turbidity raises the absorbance more than 10% above control reads.

[2] = Parallel artificial membrane permeability assay (PAMPA); assay type: in vitro ADME; conditions: PBS, room temperature for 5 hours, 200 uM in donor well
Protocol: Bioavailable drugs must permeate the cellular membranes of the lining of the digestive tract. To estimate the penetrability of exemplary compounds, the in vitro parallel artificial membrane permeability assay (PAMPA) was utilized.
Test compounds must have a standard curve in the final read plate to determine partitioned concentration of each drug. A 6-point standard curve was prepared for each compound from 0 to 200 μM in phosphate-buffered saline (PBS).
Test compound solution (300 μL in PBS) was added to the donor (bottom) well of the PAMPA plate in 5 replicates and PBS vehicle (200 μL) was added to the acceptor (top) wells of appropriate wells to match the loading of the donor plate. The bottom and top of the PAMPA plates were then sandwiched together. The PAMPA plates were then incubated at room temperature for 5 hours. After incubation, 150 μL of donor solution was added to a UV compatible plate containing the corresponding standard curve. 150 μL of acceptor well solution was added adjacent to the corresponding standard curve and donor well samples for that compound. The plate was then read using a UV plate reader.
Permeability and membrane retention were then calculated based on the following formulas:
where: • A=filter area (0.3 cm^2); • VD=donor well volume (0.3 mL); • VA=acceptor well volume (0.2 mL); • t=incubation time (seconds); • CA(t)=compound concentration in acceptor well at time t; • CD(t)=compound concentration in donor well at time t; and
where: • CD(t), VD, CA(t), and VA are as defined for equation 1, and • C0=initial concentration in donor well (200 uM).

[3] = system: hepatocyte (HepG2) cell cultures; assay: Cytotoxicity assay (LDH release); assay type: cell-based; conditions: HepG2 cells, 48 hours, 0.1 to 100 μM
Protocol: This experiment was designed to obtain a preliminary assessment of cytotoxicity.
HepG2 cells were plated in 96-well cell culture plates and allowed to attach overnight at 37° C., 5% CO2 in EMEM+10% FBS. Treatments were made in complete media (EMEM+10% FBS) and included a dilution series of test compounds from 0.1 to 100 μM. Known cytotoxin cerivastatin was used as a positive assay control and prepared at a final concentration of 0.5 μM.
Growth media was replaced with treatment media (EMEM+10% FBS containing test compound dissolved in DMSO) and cells were incubated with test compounds for 48 hours. At the end of the incubation period, supernatant media from each well was transferred to a new plate and LDH assay working solution was added. LDH assay solution undergoes a colorimetric reaction in proportion to the amount of lactate dehydrogenase (an intracellular protein that was only found in the media in the presence of lysed cells) in the media. Color reaction was quantified by measurement of absorbance at a wavelength of 490 nm.
The signal range of the assay was determined by no manipulation in a negative control treatment and full lysis of all cells in a lysis control sample. Compounds that increase the level of cytotoxicity more than 20% above negative control samples were considered cytotoxic in this assay.

[4] = In vitro stability in simulated gastric and intestinal fluids; assay type: in vitro ADME; conditions: 37° C.
Protocol: (§1) Bioavailability can be estimated by compound stability when exposed to conditions in the body. As an initial assessment of stability properties in a variety of conditions present in animals, exemplary compounds were tested for stability in a battery of simulated body compartments. Compounds were tested for stability in the following solutions: simulated gastric fluid (SGF: 34.2 mM NaCl, pH 1.2), simulated gastric fluid with the digestive enzyme pepsin (SGF+Enzyme: SGF with 3.2 mg/ml pepsin), simulated intestinal fluid with the mixture of enzymes in porcine pancreatin (SIF+Enzyme: 28.7 mM NaH2PO4, 105.7 mM NaCl, pH 6.8, 10 mg/ml pancreatin), rat plasma, and human plasma.
(§2) Test compounds were incubated at a final concentration of 5 μM in the above solutions at 37° C. with samples removed at the following time points: 0, 1, 2, and 4 hours. Reactions were stopped and prepared for quantification by addition of excess quench solution containing an internal standard (acetonitrile, 200 ng/mL bucetin). Test compound and internal standard in each sample was quantified by LC-MS/MS, and after internal normalization to bucetin, test compound concentration was expressed as a percentage of concentration at the 0-hour time point. Stability in the relevant test solution was then determined by the percent remaining at the 4-hour time point.

[5] = In vitro stability in rat plasma; assay type: in vitro ADME; conditions: 5 μM, 37° C.
Protocol: as §1, §2

[6] = In vitro stability in human plasma; assay type: in vitro ADME; conditions: 5 μM, 37° C.
Protocol: as §1, §2

[7] = In vivo tissue distribution; design: species or system Sprague-dawley rats; conditions: rat, 10 minutes post administration
Protocol: The rate of distribution to target tissues is an important feature of therapeutic molecules. Tissue distribution of exemplary compounds was performed in mixed-sex Sprague-dawley rats. Test compounds were delivered via tail vein injection (IV) and tissues were collected at Tmax (10 minutes post administration). Animals were deeply anesthetized with isoflurane and whole blood was collected from the right atrium and processed by centrifugation to produce plasma. Animals were then fully perfused with PBS administered to the left ventricle to prevent blood contamination of tissues.
Tissues were collected and homogenized, and compound content in the target tissue was quantified by LC-MS/MS. Tissue distribution rates were determined by dividing the tissue concentration of compound by the plasma concentration and multiplying by 100.

| SMILES | Potency (HGF/MET system) | Potency (MDCK cells) | solubility at 2 h [1] | Papp at 5 h, 200 uM [2] | Cytotoxicity [3] | further results |
| --- | --- | --- | --- | --- | --- | --- |
| CCC(C)CN1CC2N(Cc3ccc(O)cc3)CCC(=O)N2[C@@H](C)C1=O (some centres unmarked) [Compound 3a] | − | − | > 300 µM | < 2 ×10⁻⁶ cm/s |  |  |
| CC1C(=O)N(CC2CCC2)CC2N(C(=O)c3ccc(OC(F)F)cc3)CCC(=O)N12 (centres unmarked) [Compound 14] | ++++ (++++ indicates maximum potency at or above 0.1 nM) |  |  | > 2 ×10⁻⁶ cm/s | ++++ (++++ indicates non-toxic at 100 μM) | SGF, compound remaining after 4 hours ([4]; simulated gastric fluid pH 1.2, 5 μM): ++ (++ indicates 40-79% compound remaining after 4 hours); SGF + Enz, compound remaining after 4 hours ([4]; simulated gastric fluid with 3.2 mg/ml pepsin, 5 μM): ++ (++ indicates 40-79% compound remaining after 4 hours); SIF, compound remaining after 4 hours ([4]; simulated intestinal fluid pH 6.8 with 10 mg/ml pancreatin, 5 μM): +++ (+++ indicates 80-99% compound remaining after 4 hours); Rat Plasma, compound remaining after 4 hours [5]: +++ (+++ indicates 80-99% compound remaining after 4 hours); Human Plasma, compound remaining after 4 hours [6]: +++ (+++ indicates 80-99% compound remaining after 4 hours); Tissue Distribution (% Plasma exposure at 10 min post IV dose) Brain ([7]; brain): ++ (++ indicates distribution between 5 and 39%); Tissue Distribution (% Plasma exposure at 10 min post IV dose) Cerebellum ([7]; cerebellum): ++ (++ indicates distribution between 5 and 39%); Tissue Distribution (% Plasma exposure at 10 min post IV dose) Cortex ([7]; cortex): ++ (++ indicates distribution between 5 and 39%); Tissue Distribution (% Plasma exposure at 10 min post IV dose) Hippocampus ([7]; hippocampus): ++ (++ indicates distribution between 5 and 39%); Tissue Distribution (% Plasma exposure at 10 min post IV dose) Sciatic Nerve ([7]; sciatic nerve): ++ (++ indicates distribution between 5 and 39%) |
| CC1C(=O)N(CCCC(F)(F)F)CC2N(Cc3ccc(OC(F)F)cc3)CCC(=O)N12 (centres unmarked) [Compound 37] | − |  | > 300 µM |  |  |  |
| CC1C(=O)N(CCC(F)(F)F)CC2N(Cc3ccc(OC(F)F)cc3)CCC(=O)N12 (centres unmarked) [Compound 52] | − |  | > 100 µM |  |  |  |
| CCC(C)CN1CC2N(Cc3ccc(OC(F)F)cc3)CCC(=O)N2C(CC(C)C)C1=O (centres unmarked) [Compound 53, 1-(4-(difluoromethoxy)benzyl)-6-isobutyl-8-(2-methylbutyl)hexahydro-4H-pyrazino[1,2-a]pyrimidine-4,7(6H)-dione] | ++ (++ indicates maximum potency at or above 10 nM) | +++ (+++ indicates maximum potency at or above 1 nM) |  | < 2 ×10⁻⁶ cm/s | +++ (+++ indicates non-toxic at 10 μM) |  |
| CC1C(=O)N(CCC2CCCC2)CC2N(Cc3ccc(C(F)(F)F)c(Cl)c3)CCC(=O)N12 (centres unmarked) [Compound 54] | − | − |  | < 2 ×10⁻⁶ cm/s | +++ (+++ indicates non-toxic at 10 μM) |  |
